Experimental data reported in article PMC9585589 (ACS Chemical Neuroscience, 2022).
Values joined by “and” are separate entries in the source; they are usually repeats but may differ in a detail not shown here. Identical values can stand only once. Like-named read-outs stand apart in the source and are kept apart here.

How the values were obtained:
[1] = target: human CB1; settings: one per compound, cited from earlier work
[2] = target: T1, human CB1 receptor (Homo sapiens, UniProt P21554); experiment: biochemical; type: binding; parameters: purchased Merck HTS019M; host or cells: Chem-1 cells
T1 sequence (P21554 whole entry): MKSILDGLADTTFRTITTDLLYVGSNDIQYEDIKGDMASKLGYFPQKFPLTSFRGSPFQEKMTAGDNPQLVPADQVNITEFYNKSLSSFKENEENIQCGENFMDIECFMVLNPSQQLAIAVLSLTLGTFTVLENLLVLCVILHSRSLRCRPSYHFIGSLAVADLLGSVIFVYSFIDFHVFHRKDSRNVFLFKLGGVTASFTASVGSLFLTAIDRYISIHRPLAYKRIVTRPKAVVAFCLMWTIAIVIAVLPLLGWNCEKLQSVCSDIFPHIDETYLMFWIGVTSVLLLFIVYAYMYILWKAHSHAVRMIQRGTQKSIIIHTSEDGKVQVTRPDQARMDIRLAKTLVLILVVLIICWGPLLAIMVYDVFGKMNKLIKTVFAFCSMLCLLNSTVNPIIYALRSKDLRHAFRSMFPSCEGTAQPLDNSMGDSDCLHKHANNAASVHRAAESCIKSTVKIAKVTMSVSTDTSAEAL
Description: Compounds selected for the in vitro binding assay from the first iteration of VS were purchased via MolPort, SIA, Riga, Latvia and Biopurify Phytochemicals Ltd., Chengdu, China. Compounds from the second iteration were purchased from MolPort, SIA, Riga, Latvia and Chemspace, SIA, Riga, Latvia (Supporting Information S3). […] Membranes from cells overexpressing the human CB1 receptor (ChemiScreen CB1 Cannabinoid Receptor Membrane Preparation, cat. no. HTS019M) as well as MgCl2, CaCl2, Trizma Base, NaCl, polyethylenimine (PEI) and dimethyl sulfoxide (DMSO) were purchased from Merck (USA). Bovine serum albumin (BSA) was obtained from Pol-Aura (Poland).
Compounds were dissolved in 50% DMSO and added to the reaction mixture at 10 concentrations equally spaced on a log scale (10^–10 to 10^–4.5 M). The final DMSO concentration was 5%. […] The reaction mixture (500 μL) was incubated for 1.5 h at 30°C . Before harvesting, Whatman GF/B Filter Paper (Brandel, USA) was presoaked with 0.33% PEI buffer for 30 min. and then washed with 2 ml of 50 mM Tris-HCl buffer (pH = 7.4) and 0.5% BSA to minimize non-specific binding. The reaction was terminated by depositing the samples onto GF/B filter paper with the Brandel M-24 Cell Harvester (Brandel, USA). Samples were then rapidly washed 3 times with 2 ml of ice-cold wash buffer (50 mM Tris-HCl pH 7.4, 500 mM NaCl) to separate the bound radioligand from free. Filters were then air-dried for 1 h at 60°C . After drying, filter discs were placed on a flexible 24-well plate and 500 μL of EcoScint-20 scintillant was added to each well. Plates were counted (2 min. per well) in a Trilux MicroBeta^2 2450 scintillation counter (Perkin Elmer, USA). Data were analyzed with GraphPad Prism 5.0 software.[89]

[3] = target: T1, human CB1 receptor; type: biochemical; settings: in words
[4] = target: T1, human CB1 receptor; experiment: biochemical
Procedure: Ten compound concentrations equally spaced on a log scale (10^–3 to 10^–9 M) were incubated in triplicate with membrane preparations from CHO-K1 cells expressing the human CB1 receptor (5 μg per well) (Perkin Elmer, cat. no. ES-110-M400UA) in an assay buffer containing 50 mM Tris-HCl, pH = 7.4, 1 mM EGTA, 3 mM MgCl2, 100 mM NaCl and 30 μM GDP) in the presence of 0.08 nM [^35S]GTPγS (specific activity: 1250 Ci/mmole, Perkin Elmer). Non-specific binding was determined with 100 μM of unlabeled GTPγS. […] The final DMSO concentration in the assay was 5%. The reaction mixture was incubated for 90 min. at 30°C . Next, the samples were deposited under vacuum with the FilterMate Harvester® (Perkin Elmer, USA) onto Unifilter® GF/B Plates (Perkin Elmer, USA) presoaked with wash buffer (50 mM Tris-HCl, pH = 7.4). The samples were then rapidly washed with 2 ml of wash buffer. Filter plates were dried for 30 min. at 50 °C and 40 μL of MicroScint PS (Perkin Elmer, USA) scintillation fluid was added to each well. Radioactivity was counted in a Trilux MicroBeta^2 counter (Perkin Elmer, USA). Data were analyzed with GraphPad Prism 5.0 software. Curves were fitted with three-parameter non-linear regression model.

[5] = parameters: method as in MedChemExpress product data sheet; settings: ref MedChemExpress product data sheet, listed as Flupentixol dihydrochloride, cited from earlier work
[6] = CB1 antagonists/inverse agonists, Table S9, ref SI (20)-(38)
[7] = CB1 agonists, Table S8, ref SI (1)-(19)
[8] = [3H]CP-55,940 displacement, membranes of Chem-1 cells expressing human CB1, read-out: pKi ± SEM (converted)
[9] = CHO-K1 membranes, WIN 55,212-2 (3 μM) as stimulating ligand, read-out: CB1 inhibition pIC50 (converted)
[10] = read-out: CB1 inhibition IC50 (μM, 95% CI)

Compound | Ki [1, 6] [nM] | Ki [1, 7] [nM] | also measured
Cc1nc2c(-c3ccc(Cl)cc3)n(-c3ccccc3Cl)nc2c(=O)n1CC(F)(F)F [CHEMBL201602] | 0.6 |  | 
CCCCCCC(C)(C)c1cc(O)c2c(c1)OC(C)(C)[C@@H]1CC=C(C(=O)O)C[C@@H]21 [Ajulemic acid] |  | 5.7 | 
CCNC1(C(N)=O)CCN(c2cnc(-c3ccc(Cl)cc3)c(-c3ccc(Cl)cc3Cl)n2)CC1 [CHEMBL496293] | 0.91 |  | 
CCCCC/C=C\C/C=C\C/C=C\C/C=C\CCCCOC(CO)CO [Noladin ether] |  | 25 | 
CCCCCCn1cc(C(=O)c2cccc3ccccc23)cc1-c1ccccc1 [JWH-147] |  | 11 | 
CC(C)[C@H](N=C(NS(=O)(=O)c1ccc(Cl)cc1)N1C[C@H](c2ccccc2)C(c2ccc(Cl)cc2)=N1)C(N)=O [JD-5037] | 0.35 |  | 
COc1cc(O)c2c(=O)cc(-c3ccc(OC)c(-c4c(O)cc(O)c5c(=O)cc(-c6ccc(O)cc6)oc45)c3)oc2c1 [Compound 15, ginkgetin] |  |  | Ki ([2]; Ki (μM, 95% CI)): 8.6 µM; Ki [2, 8]: 8.71 µM; intrinsic activity [3]: antagonists; IC50 ([4]; CB1 inhibition IC50 (μM, 95% CI)): 63 µM
CCNC1(C(N)=O)CCN(c2cnc(-c3ccc(OCC)cc3)c(-c3ccccc3Cl)n2)CC1 [CHEMBL495891] | 15 |  | 
CCCCCn1cc(C(=O)c2cccc3ccccc23)c2ccccc21 [JWH-018] |  | 9 | 
CCOc1ccc(Cc2nc3cc(N(C)S(=O)(=O)c4cccs4)ccc3n2CC2CCCCC2)nc1 [AZ-11713908] |  | 3 | 
COc1ccc([C@@H](CC(=O)NCc2cccc3[nH]ccc23)c2cc3c(cc2O)OCO3)cc1 [Compound 32] |  |  | Ki ([2]; Ki (μM, 95% CI)): 6.8 µM; Ki [2, 8]: 6.31 µM; intrinsic activity [3]: antagonists; IC50 [4, 9]: 33.1 µM; IC50 [4, 10]: 40 µM
O=C(c1ccc2c(c1)c1ccccc1n2CCCCCF)c1cccc2ccccc12 [EG-2201] |  | 22.4 | 
CC1=CC[C@@H]2[C@@H](C1)c1c(O)cc(C(C)(C)CCCCCCBr)cc1OC2(C)C [AM-11542] |  | 0.11 | 
C/C(N)=N\C(=N/S(=O)(=O)c1ccc(C(F)(F)F)cc1)N1C[C@H](c2ccccc2)C(c2ccc(Cl)cc2)=N1 [MRI-1867] | 2.3 |  | 
COc1ccc(-c2cc(-c3ccccc3)cc(-c3ccccc3O)n2)c(OC)c1 [Compound 38] |  |  | Ki [2, 8]: 2.51 µM; intrinsic activity [3]: antagonists; IC50 [4, 10]: 140 µM
Cc1c(C(=O)NN2CCCCC2)nn(-c2ccc(Cl)cc2Cl)c1-c1ccc(N)cc1 [CHEMBL349955] | 81.5 |  | 
Cc1c(-c2cn(-c3ccccc3)cn2)nn(-c2ccccc2Cl)c1-c1ccc(Cl)cc1 [CHEMBL568221] | 3.8 |  | 
Cc1c(C(=O)NN2CCS(=O)(=O)CC2)nn(-c2ccc(Cl)cc2Cl)c1-c1ccc(C#CCCC#N)cc1 [AM-6545] | 1.7 |  | 
N#Cc1c(Oc2cccc(OS(=O)(=O)CCCC(F)(F)F)c2)cccc1C(F)(F)F [BAY 59-3074] |  | 48.3 | 
CC1(C)C(C(=O)c2cn(CCCCCF)c3ccccc23)C1(C)C [XLR-11] |  | 24 | 
CCCCCn1cc(C(=O)C2C(C)(C)C2(C)C)c2ccccc21 [UR-144] |  | 29 | 
OCCN1CCN(CC/C=C2/c3ccccc3Sc3ccc(C(F)(F)F)cc32)CC1 [Compound 33, Flupentixol] |  |  | pKi ± SEM ([2]; [3H]CP-55,940 displacement, membranes of Chem-1 cells expressing human CB1): 4.27 ± 0.04; Ki ([2]; read-out: Ki (μM, 95% CI)): 53 µM; Solubility ([5]; 10% DMSO >> 40% PEG300 >> 5% Tween-80 >> 45% saline): ≥ 2.5 mg/mL and ≥ 4.93 mM; Solubility ([5]; 10% DMSO >> 90% (20% SBE-β-CD in saline)): ≥ 2.5 mg/mL and ≥ 4.93 mM; Solubility ([5]; 10% DMSO >> 90% corn oil): ≥ 4.93 mM and ≥ 2.5 mg/mL; Solubility in H2O ([5]; in vitro, need ultrasonic): 100 mg/mL and 197.07 mM; Solubility in DMSO ([5]; in vitro): 33.33 mg/mL and 65.68 mM

Compound | Ki [1, 6] [nM] | Ki [1, 7] [nM] | also measured
CCCCC/C=C\C/C=C\C/C=C\C/C=C\CCCC(=O)NCCO [Anandamide] |  | 70 | 
COc1cccc2c1ccn2CCNC(=O)[C@H](Cc1cn(C)c2ccccc12)NC(=O)OC(C)(C)C [Compound 43] |  |  | Ki ([2]; Ki (μM, 95% CI)): 6.6 µM; intrinsic activity [3]: antagonists; IC50 [4, 9]: 1.86 µM
CC(C)(CCCCCCN=C=S)c1cc(O)c2c(c1)OC(C)(C)[C@@H]1CC[C@@H](CO)C[C@@H]21 [AM-841] |  | 1.14 | 
COc1cc(-c2c3cn[nH]c3nc3c2oc2c(O)c(O)ccc23)ccc1OCc1ccc(C(C)C)cc1 [Compound 30] |  |  | Ki ([2]; Ki (μM, 95% CI)): 0.8 µM; Ki [2, 8]: 0.851 µM; intrinsic activity [3]: mixed CB1 partial agonist/antagonist; IC50 [4, 9]: 2.09 µM; Emax ([4]; CHO-K1 membranes, read-out: CB1 stimulation Emax (%)): 126 ± 5%; EC50 ([4]; CHO-K1 membranes, read-out: CB1 stimulation pEC50 (converted)): 417 nM
COc1ccccc1C(CCNC(C)c1ccc(Cl)cc1)c1ccc(OC(C)C)cc1 (stereo not shown) [Compound 34] |  |  | Ki [2, 8]: 2.69 µM; intrinsic activity [3]: antagonists; IC50 [4, 9]: 3.72 µM
CCNC1(C(N)=O)CN(c2cnc(-c3ccc(C(F)(F)F)cc3)c(-c3ccnc(Cl)c3)n2)C1 [CHEMBL498783] | 1.2 |  | 
C[C@H](NC(=O)C(C)(C)Oc1ccc(C(F)(F)F)cn1)[C@@H](Cc1ccc(Cl)cc1)c1cccc(C#N)c1 [Taranabant] | 0.13 |  | 
CCCCC/C=C\C/C=C\C/C=C\C/C=C\CCCC(=O)NCCCl [ACEA] |  | 5.3 | 
Cc1c(C(=O)NN2CCCCC2)nn(-c2ccc(Cl)cc2Cl)c1-c1ccc(C#CCCO[N+](=O)[O-])cc1 [AM-6538] | 3.4 |  | 
CC(C)N1CCOc2c(nn(-c3ccccc3Cl)c2-c2ccc(Cl)cc2)C1=O [CHEMBL482741] | 1.3 |  | 
COC(=O)[C@@H](NC(=O)c1ccc2c(c1)c1ccccc1n2CC1CCCCC1)C(C)(C)C [MDMB-CHMCZCA] |  | 5.75 | 
O=S(=O)(CCCC(F)(F)F)Oc1cccc(Oc2cccc3c2C[C@H](CO)C3)c1 [BAY 38-7271] |  | 2.91 | 
CCc1c(C(=O)NN2CCCCC2)nn(-c2ccc(Cl)cc2Cl)c1-c1ccc(Br)cc1 [Surinabant] | 3.5 |  | 
Cc1c(C(=O)NN2CCOCC2)nn(-c2ccc(Cl)cc2Cl)c1-c1ccc(I)cc1 [AM-281] | 12 |  | 
CN=C(NS(=O)(=O)c1ccc(Cl)cc1)N1C[C@H](c2ccccc2)C(c2ccc(Cl)cc2)=N1 [Ibipinabant] | 7.8 |  | 
CCCCCCC(C)(C)c1cc(O)c2c(c1)OC(C)(C)[C@@H]1CC=C(CO)C[C@@H]21 [HU-210] |  | 0.06 | 
CS(=O)(=O)N(c1cc(F)cc(F)c1)C1CN(C(c2ccc(Cl)cc2)c2ccc(Cl)cc2)C1 [Drinabant] | 11 |  | 
CCCCCn1cc(C(=O)c2cccc3ccccc23)cc1-c1ccccc1F [JWH-307] |  | 7.7 | 
CC1=CC[C@@H]2[C@@H](C1)c1c(O)cc(C34CC5CC(CC(C5)C3)C4)cc1OC2(C)C [AM-411] |  | 6.8 | 
CCCCCCC(C)(C)c1ccc([C@@H]2C[C@H](O)C[C@@H]3CC[C@H](CO)C[C@H]32)c(O)c1 [CP-55,244] |  | 1 | 
O=C(NCc1ccc(F)cc1)c1ccc(S(=O)(=O)n2cc(N3CCCCC3)c3ccccc32)cc1 [PipISB] | 1.5 |  | 
